Laboratory results as given in the supplement of paper PMC11061612.

Assays:
[1] = test system: NCI-H1092 (Small Cell Lung Carcinoma); test: Bliss excess, mean over the matrix (fraction); higher = more synergy
In short: (§1)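 Bliss excess equals the observed combination effect minus the expected value EA + EB − EA·EB, where EA and EB are the effects of each agent alone. Combination Emax is the second-highest inhibition within the matrix. Inhibition was scaled from CellTiter-Glo 2.0 luminescence, with 0 set by vehicle wells and 1 by blank wells, after 72 hours of two-drug dosing of cells plated in 1536-well plates.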

[2] = test system: Hey (Ovarian Carcinoma); test: as above
In short: as §1

[3] = test system: NCI-H522 (Lung Adenocarcinoma); test: combination Emax (second highest fraction inhibited in the dose matrix, 72 h); higher = more inhibition; extreme values may be limits of the assay
In short: as §1

[4] = test system: DU-145 (Prostate Carcinoma); test: as above
In short: as §1

[5] = test system: OE33 (Esophageal Adenocarcinoma); test: as above
In short: as §1

[6] = test system: ML-2 (Acute Myeloid Leukemia); test: as above
In short: as §1

[7] = test system: Ca-Ski (Cervical Carcinoma); test: as above
In short: as §1

[8] = test system: LC-1-sq (Squamous Cell Lung Carcinoma); test: as above
In short: as §1

[9] = test system: NCI-H1355 (Lung Adenocarcinoma); test: as above
In short: as §1

[10] = test system: MV-4-11 (Acute Myeloid Leukemia); test: as above
In short: as §1

[11] = test system: SW872 (Other Solid Carcinomas); test: as above
In short: as §1

[12] = test system: SNU-387 (Hepatocellular Carcinoma); test: as above
In short: as §1

[13] = test system: EW-1 (Ewing's Sarcoma); test: as above
In short: as §1

[14] = test system: KMRC-1 (Kidney Carcinoma); test: as above
In short: as §1

[15] = test system: Mo-T (Other Blood Carcinomas); test: as above
In short: as §1

[16] = test system: COLO-679 (Melanoma); test: as above
In short: as §1

[17] = test system: SW982 (Other Solid Carcinomas); test: as above
In short: as §1

[18] = test system: G-401 (Other Solid Carcinomas); test: as above
In short: as §1

[19] = test system: COLO-668 (Small Cell Lung Carcinoma); test: as above
In short: as §1

SMILES: CC(=O)Nc1cccc(-n2c(=O)n(C3CC3)c(=O)c3c(Nc4ccc(I)cc4F)n(C)c(=O)c(C)c32)c1 [Trametinib] + Cc1nc(-c2cn3c(n2)-c2ccc(-c4cnn(C(C)(C)C(N)=O)c4)cc2OCC3)n(C(C)C)n1 [Taselisib] (first compound max 1 µM, 7x7, partner max 10 µM)
- Bliss excess [1]: -0.0174
- Bliss excess [2]: 0.0984
- combination Emax [3]: 0.245
- combination Emax [4]: 0.411
- combination Emax [5]: 0.84
- combination Emax [6]: 0.968
- combination Emax [7]: 0.816
- combination Emax [8]: 0.722
- combination Emax [9]: 0.69
- combination Emax [10]: 0.848
- combination Emax [11]: 0.588
- combination Emax [12]: 1
- combination Emax [13]: 0.761
- combination Emax [14]: 0.748
- combination Emax [15]: 0.524
- combination Emax [16]: 0.856
- combination Emax [17]: 0.83
- combination Emax [18]: 0.958
- combination Emax [19]: 0.96

SMILES: COc1cccc(OCCCN)c1-c1cc(Nc2cnc(C#N)cn2)n[nH]1 [Prexasertib] + Cc1cc2ncnn2cc1Nc1ncc2c(n1)n(C1CCOCC1)c(=O)n2C [AZD7648] (first compound max 1 µM, 7x7, partner max 10 µM)
- Bliss excess [1]: -0.0287
- Bliss excess [2]: -0.0301
- combination Emax [3]: 0.385
- combination Emax [4]: 0.649
- combination Emax [5]: 0.823
- combination Emax [6]: 1
- combination Emax [7]: 0.794
- combination Emax [8]: 0.944
- combination Emax [9]: 0.714
- combination Emax [10]: 1
- combination Emax [11]: 0.867
- combination Emax [12]: 0.552
- combination Emax [13]: 0.962
- combination Emax [14]: 0.539
- combination Emax [15]: 0.523
- combination Emax [16]: 0.902
- combination Emax [17]: 0.774
- combination Emax [18]: 0.588
- combination Emax [19]: 0.786

SMILES: CC1(C)CCC(CN2CCN(c3ccc(C(=O)NS(=O)(=O)c4ccc(NCC5CCOCC5)c([N+](=O)[O-])c4)c(Oc4cnc5[nH]ccc5c4)c3)CC2)=C(c2ccc(Cl)cc2)C1 [Venetoclax] + C[C@@H](Nc1cc(F)cc(F)c1)c1cc(C(=O)N(C)C)cc2c(=O)cc(N3CCOCC3)oc12 [AZD8186] (first compound max 1 µM, 7x7, partner max 3 µM)
- Bliss excess [1]: 0.0667
- Bliss excess [2]: -0.0286
- combination Emax [3]: 0.0652
- combination Emax [4]: 0.153
- combination Emax [5]: 0.211
- combination Emax [6]: 0.983
- combination Emax [7]: 0.114
- combination Emax [8]: 0.187
- combination Emax [9]: 0.196
- combination Emax [10]: 1
- combination Emax [11]: 0.167
- combination Emax [12]: 0.21
- combination Emax [13]: 0.303
- combination Emax [14]: 0.532
- combination Emax [15]: 0.632
- combination Emax [16]: 0.273
- combination Emax [17]: 0.382
- combination Emax [18]: 0.345
- combination Emax [19]: 0.438

SMILES: CC1(C)CCC(CN2CCN(c3ccc(C(=O)NS(=O)(=O)c4ccc(NCC5CCOCC5)c([N+](=O)[O-])c4)c(Oc4cnc5[nH]ccc5c4)c3)CC2)=C(c2ccc(Cl)cc2)C1 [Venetoclax] + CN(C)CCCOc1ccc(-c2ccc3ncc4c(c3c2)n(C2CCOCC2)c(=O)n4C)cn1 [AZD0156] (first compound max 1 µM, 7x7, partner max 1 µM)
- Bliss excess [1]: -0.0023
- Bliss excess [2]: -0.0255
- combination Emax [3]: 0.141
- combination Emax [4]: 0.0977
- combination Emax [5]: 0.219
- combination Emax [6]: 0.822
- combination Emax [7]: 0.369
- combination Emax [8]: 0.192
- combination Emax [9]: 0.296
- combination Emax [10]: 1
- combination Emax [11]: 0.172
- combination Emax [12]: 0.201
- combination Emax [13]: 0.179
- combination Emax [14]: 0.0988
- combination Emax [15]: 0.558
- combination Emax [16]: 0.107
- combination Emax [17]: 0.2
- combination Emax [18]: 0.35
- combination Emax [19]: 0.452

SMILES: CC1(C)CCC(CN2CCN(c3ccc(C(=O)NS(=O)(=O)c4ccc(NCC5CCOCC5)c([N+](=O)[O-])c4)c(Oc4cnc5[nH]ccc5c4)c3)CC2)=C(c2ccc(Cl)cc2)C1 [Venetoclax] + C[C@@H]1COCCN1C2=NC(=NC(=C2)C3(CC3)[S@](=N)(=O)C)C4=C5C=CNC5=NC=C4 [AZD6738] (first compound max 1 µM, 7x7, partner max 10 µM)
- Bliss excess [1]: 0.0739
- Bliss excess [2]: -0.0378
- combination Emax [3]: 0.161
- combination Emax [4]: 0.537
- combination Emax [5]: 0.773
- combination Emax [6]: 1
- combination Emax [7]: 0.581
- combination Emax [8]: 0.672
- combination Emax [9]: 0.696
- combination Emax [10]: 1
- combination Emax [11]: 0.459
- combination Emax [12]: 0.588
- combination Emax [13]: 0.944
- combination Emax [14]: 0.486
- combination Emax [15]: 0.735
- combination Emax [16]: 0.639
- combination Emax [17]: 0.676
- combination Emax [18]: 0.703
- combination Emax [19]: 0.877

SMILES: COc1cccc(OCCCN)c1-c1cc(Nc2cnc(C#N)cn2)n[nH]1 [Prexasertib] + C=CCn1c(=O)c2cnc(Nc3ccc(N4CCN(C)CC4)cc3)nc2n1-c1cccc(C(C)(C)O)n1 [AZD1775] (first compound max 1 µM, partner max 1 µM)
- Bliss excess [1]: 0.031
- Bliss excess [2]: 0.11
- combination Emax [3]: 0.676
- combination Emax [4]: 0.691
- combination Emax [5]: 0.829
- combination Emax [6]: 1
- combination Emax [7]: 0.874
- combination Emax [8]: 0.986
- combination Emax [9]: 0.756
- combination Emax [10]: 1
- combination Emax [11]: 0.933
- combination Emax [12]: 0.729
- combination Emax [13]: 0.966
- combination Emax [14]: 0.627
- combination Emax [15]: 0.539
- combination Emax [16]: 0.827
- combination Emax [17]: 0.825
- combination Emax [18]: 0.905
- combination Emax [19]: 0.881
